This is an account of results in patent publication US20160169850A1, “SENSOR MOLECULE” (University of Malta, priority 2014, published 2016).

Read-outs that look alike come from different tables or passages of the source.

The conditions of data set [1]: CH3CN; known sensor; cited from earlier work.
The conditions of data set [2]: CH3CN; known sensor; cited from earlier work. This is another data set of the same source.
For data set [3] the following is noted: for Fluorescent Output: 1:1 MeOH:H2O.
The conditions of data set [4]: 1:1 methanol:water, excess H^+ (pH 3), emission at 525 nm.

Turning to `CN(CC1=CSC(=C2SC=CS2)S1)Cc1c2ccccc2cc2ccccc12` [Compound 2], the “Fluorescent Enhancement (FE)” value in data set [1] is recorded as 5. Besides, in data set [2], the “Quantum Yield (ΦF)” value is on record as 0.015.

With “N-ferrocenyl-4-methylpiperazine-1,8-naphthalimide [Compound 5]”, the “visual output under UV lamp” value in data set [3] (365 nm light, high acid and Fe(III), 1:1 methanol/water) is recorded as “bright green fluorescent”. Also, the “Fluorescent Output” value in data set [3] (Condition A: no inputs) is given as “Low”; in data set [3] (Condition D: Fe(III) and H^+ both), “High”. Moreover, the fluorescence enhancement in data set [3] (both inputs versus no input or one input, 1:1 methanol:water) stood at 19 fold. For the same molecule, the “Output emission, logic level” value by setting is: (Condition A: H^+ low, Fe^3+ low) “low (Output is considered high when >0.050)”; (Condition B: 0.2 mM H^+, Fe^3+ low) “low (Output is considered high when >0.050)”; (Condition C: H^+ low, 10 μM Fe(III)) “low (Output is considered high when >0.050)”; (Condition D: 0.2 mM H^+ and 10 μM Fe(III)) “high (Output is considered high when >0.050)”. The “−log [Fe^3+] at equivalence point” value in data set [4] was 5.1.
